These results are taken from patent US20200033346A1, “DIAGNOSTIC AND THERAPEUTIC METHODS FOR KRAS POSITIVE CANCERS” (The Board of Trustees of the Leland Stanford Junior …, priority 2017, published 2020).

One assay concerns Erk pathway. The assay can be described thus: NIA of ERK isoforms in head and neck squamous cell carcinoma before and after rigosertib. The class given is in vivo, human. The note with it: one head and neck cancer patient; pre- vs post-treatment; FIG. 32. On the procedure:
Patients receive 2 cycles of 2 weeks of treatment with 1 week off regimen. For Cycle 1, Day 14 only, 5 patients with HNSCC will undergo biopsy or FNA for nano-proteomic profiling of total- and phospho-proteins in pathways inhibited by rigosertib, ERK and loading control. For Cycle 1 Day 14 and Cycle 2 Day 14, pharmacokinetic blood analyses are performed. […] A patient with head and neck cancer treated on clinical trial of rigosertib had tumor sampled before (pre-treatment) and after (post-treatment) treatment. NIA was used to measure ERK isforms.

For a further assay, the target named is FASN (Homo sapiens, UniProt P49327). Conditions: background description; cited from earlier work.
The subject of assay [1] is FASN and SCD gene expression. The assay can be described thus: Real-time PCR of FASN and SCD mRNA in human lung cancer cell lines after inhibitor treatment. Type of assay: cell-based. The note with it: qPCR. The procedure: Cell culture. The human non-small cell lung carcinoma cell lines, A549 and H1299, were used for in vitro experiments. A549 cells were maintained in Dulbecco's Modified Eagle Medium (DMEM) supplemented with 10% fetal bovine serum (FBS), 1% L-glutamine, 1% sodium pyruvate, 1% nonessential amino acids, and Antibiotic-Antimycotic. H1299 cells were maintained in RPMI 1640 medium supplemented with 10% FBS, 50 μM β-mercaptoethanol, and Antibiotic-Antimycotic. Trypsin-EDTA was used to passage both A549 and H1299 cells. All cell culture reagents were purchased from Gibco® (Thermo Fisher Scientific Inc.). Small molecule inhibitors. […] FTS is a synthetic famesylcysteine mimetic which interferes with the anchoring of KRAS to the plasma membrane. […] Various levels of these drugs were administered to cells in culture over a time course in order to assess dose-response relationships. RNA extraction and cDNA synthesis. Total RNA was isolated from cells and lung tissue using the QIAGEN RNeasy Mini kit. RNA quality and concentration were assessed by the NanoDrop® spectrophotometer. The RNA was reverse transcribed into cDNA using the SuperScript® III First-Strand Synthesis System (Invitrogen). […] Amplicons were detected by using SYBR® Green I dye as fluorophore. […] For each gene, a threshold cycle (Ct) number, which represents the number of cycles required to reach the threshold fluorescence, was determined. […]
On the technique in general: Quantitative PCR measures a nucleic acid by following its amplification.

Another assay deals with tumor burden. The assay can be described thus: Tumor burden in patients on clinical trial of atorvastatin. Type of assay: in vivo, human. Conditions: eight days of treatment.
A further assay deals with MEK1 phospho-isoforms. The assay can be described thus: NIA of MEK isoforms in NHL patients before and after atorvastatin. Type of assay: in vivo, human. The procedure: Nine patients were treated on clinical trial of HMG co-A reductase inhibitor atorvastatin. NIA was used to measure changes in MEK isoforms before (day 1) and after eight days of treatment.
Nine patients were treated on clinical trial of HMG co-A reductase inhibitor atorvastatin. NIA was used to measure changes in MEK isoforms before (day 1) and after 8 days of treatment.

The test system of another assay is ERK1/2 phosphorylation. The assay can be described thus: NIA analysis of ERK isoforms in FNAs from transgenic lymphoma. Type of assay: in vivo, mouse. The note with it: Day 4 of FTS treatment, FIG. 22. The procedure:
(§1) Nanoimmunoassay (NIA). NIA was performed using the Nanopro 1000 (Protein Simple) to detect the phosphorylation states of ERK1 and ERK2 in lysates generated from lung tumor tissue. NIA is a highly sensitive capillary-based isoelectric focusing method that uses antibody detection to quantify protein isoforms as well as characterize post-translational protein modifications such as phosphorylation. The final protein concentration loaded into each capillary of the Nanopro 1000 was 0.1 μg/μL. The primary rabbit antibody for ERK1/2 (Millipore) was diluted 1:300 and the primary mouse antibody for the loading control, Hsp70 (Santa Cruz Biosciences), was diluted 1:500. The anti-mouse and anti-rabbit secondary antibodies, conjugated to horse radish peroxidase, were diluted 1:100. Chemiluminescence signal was recorded following the addition of luminol and peroxide detection reagents. Analysis of NIA data was performed in Compass software (Protein Simple).
Tumors were sampled by fine needle aspirate prior to treatment (UnTx), and […] after 1-8 days of treatment with FTS.
Comparison with dox is shown. Mice were either treated with FTS (BC2FTS) or BCL2 inactivation (BCL2Dox). Tumors were sampled by fine needle aspirate prior to treatment (UnTx), and […] after 1-8 days of treatment with FTS.

The test system of the next assay is BCL2-induced lymphoma. The assay can be described thus: Tumor growth in mice with BCL2-induced lymphoma. The class given is in vivo, mouse. The note with it: RAS inactivation by FTS together with BCL2 inactivation by DOX; FIG. 21. From the text: Inactivation of both BCL2 and Ras inhibits tumor growth more effectively than either oncogene alone: mice with BCL2-induced lymphoma. Plots of tumor area over time in mice cohorts: untreated (UnTx), with BCL2 inactivated (BCL2 off), Ras inactivated (Ras off, or both BCL2 and Ras inactivated (BCL2off,Ras off).

Another assay deals with ERK1/2 phospho-isoforms. The assay can be described thus: NIA analysis of ERK isoforms in tumor FNAs of mice with MYC-induced lymphoma. Type of assay: in vivo, mouse. Conditions: FIG. 18. On the procedure:
as §1
Mice with MYC-induced lymphoma were treated with FTS. Tumors from mouse untreated or after 4 days of treatment were sampled by fine needle aspirate. FNAs were flash frozen and batch analyzed. NIA was used to analyze ERK isoforms using NIA.

The next assay concerns A549. The assay can be described thus: Cell proliferation upon FASN inhibition (PI assay, hemocytometer cell counting), A549. The class given is cell-based, human. Conditions: cerulenin 1-10 μg/mL, FIG. 6A. An excerpt: (§2) Cell culture. The human non-small cell lung carcinoma cell lines, A549 and H1299, were used for in vitro experiments. A549 cells were maintained in Dulbecco's Modified Eagle Medium (DMEM) supplemented with 10% fetal bovine serum (FBS), 1% L-glutamine, 1% sodium pyruvate, 1% nonessential amino acids, and Antibiotic-Antimycotic. […] Trypsin-EDTA was used to passage both A549 and H1299 cells. All cell culture reagents were purchased from Gibco® (Thermo Fisher Scientific Inc.).
(§3) Small molecule inhibitors. […] FTS is a synthetic famesylcysteine mimetic which interferes with the anchoring of KRAS to the plasma membrane. […] Various levels of these drugs were administered to cells in culture over a time course in order to assess dose-response relationships.
(§4) Cell counting. A volume of cells was removed from culture medium and mixed with an equal volume of 0.4% Trypan blue stain. Then 10 μL was taken out and placed into a hemocytometer for cell counting. Viable cell counts were used as a measure of cell proliferation.

Another assay relates to H1299. The assay can be described thus: Cell proliferation upon FASN inhibition (PI assay, hemocytometer cell counting), H1299. The note with it: cerulenin 1-10 μg/mL, FIG. 6B. Type of assay: cell-based, human.
Source text: as §2, §3, §4

FASN, sequence (P49327 whole entry, species assumed): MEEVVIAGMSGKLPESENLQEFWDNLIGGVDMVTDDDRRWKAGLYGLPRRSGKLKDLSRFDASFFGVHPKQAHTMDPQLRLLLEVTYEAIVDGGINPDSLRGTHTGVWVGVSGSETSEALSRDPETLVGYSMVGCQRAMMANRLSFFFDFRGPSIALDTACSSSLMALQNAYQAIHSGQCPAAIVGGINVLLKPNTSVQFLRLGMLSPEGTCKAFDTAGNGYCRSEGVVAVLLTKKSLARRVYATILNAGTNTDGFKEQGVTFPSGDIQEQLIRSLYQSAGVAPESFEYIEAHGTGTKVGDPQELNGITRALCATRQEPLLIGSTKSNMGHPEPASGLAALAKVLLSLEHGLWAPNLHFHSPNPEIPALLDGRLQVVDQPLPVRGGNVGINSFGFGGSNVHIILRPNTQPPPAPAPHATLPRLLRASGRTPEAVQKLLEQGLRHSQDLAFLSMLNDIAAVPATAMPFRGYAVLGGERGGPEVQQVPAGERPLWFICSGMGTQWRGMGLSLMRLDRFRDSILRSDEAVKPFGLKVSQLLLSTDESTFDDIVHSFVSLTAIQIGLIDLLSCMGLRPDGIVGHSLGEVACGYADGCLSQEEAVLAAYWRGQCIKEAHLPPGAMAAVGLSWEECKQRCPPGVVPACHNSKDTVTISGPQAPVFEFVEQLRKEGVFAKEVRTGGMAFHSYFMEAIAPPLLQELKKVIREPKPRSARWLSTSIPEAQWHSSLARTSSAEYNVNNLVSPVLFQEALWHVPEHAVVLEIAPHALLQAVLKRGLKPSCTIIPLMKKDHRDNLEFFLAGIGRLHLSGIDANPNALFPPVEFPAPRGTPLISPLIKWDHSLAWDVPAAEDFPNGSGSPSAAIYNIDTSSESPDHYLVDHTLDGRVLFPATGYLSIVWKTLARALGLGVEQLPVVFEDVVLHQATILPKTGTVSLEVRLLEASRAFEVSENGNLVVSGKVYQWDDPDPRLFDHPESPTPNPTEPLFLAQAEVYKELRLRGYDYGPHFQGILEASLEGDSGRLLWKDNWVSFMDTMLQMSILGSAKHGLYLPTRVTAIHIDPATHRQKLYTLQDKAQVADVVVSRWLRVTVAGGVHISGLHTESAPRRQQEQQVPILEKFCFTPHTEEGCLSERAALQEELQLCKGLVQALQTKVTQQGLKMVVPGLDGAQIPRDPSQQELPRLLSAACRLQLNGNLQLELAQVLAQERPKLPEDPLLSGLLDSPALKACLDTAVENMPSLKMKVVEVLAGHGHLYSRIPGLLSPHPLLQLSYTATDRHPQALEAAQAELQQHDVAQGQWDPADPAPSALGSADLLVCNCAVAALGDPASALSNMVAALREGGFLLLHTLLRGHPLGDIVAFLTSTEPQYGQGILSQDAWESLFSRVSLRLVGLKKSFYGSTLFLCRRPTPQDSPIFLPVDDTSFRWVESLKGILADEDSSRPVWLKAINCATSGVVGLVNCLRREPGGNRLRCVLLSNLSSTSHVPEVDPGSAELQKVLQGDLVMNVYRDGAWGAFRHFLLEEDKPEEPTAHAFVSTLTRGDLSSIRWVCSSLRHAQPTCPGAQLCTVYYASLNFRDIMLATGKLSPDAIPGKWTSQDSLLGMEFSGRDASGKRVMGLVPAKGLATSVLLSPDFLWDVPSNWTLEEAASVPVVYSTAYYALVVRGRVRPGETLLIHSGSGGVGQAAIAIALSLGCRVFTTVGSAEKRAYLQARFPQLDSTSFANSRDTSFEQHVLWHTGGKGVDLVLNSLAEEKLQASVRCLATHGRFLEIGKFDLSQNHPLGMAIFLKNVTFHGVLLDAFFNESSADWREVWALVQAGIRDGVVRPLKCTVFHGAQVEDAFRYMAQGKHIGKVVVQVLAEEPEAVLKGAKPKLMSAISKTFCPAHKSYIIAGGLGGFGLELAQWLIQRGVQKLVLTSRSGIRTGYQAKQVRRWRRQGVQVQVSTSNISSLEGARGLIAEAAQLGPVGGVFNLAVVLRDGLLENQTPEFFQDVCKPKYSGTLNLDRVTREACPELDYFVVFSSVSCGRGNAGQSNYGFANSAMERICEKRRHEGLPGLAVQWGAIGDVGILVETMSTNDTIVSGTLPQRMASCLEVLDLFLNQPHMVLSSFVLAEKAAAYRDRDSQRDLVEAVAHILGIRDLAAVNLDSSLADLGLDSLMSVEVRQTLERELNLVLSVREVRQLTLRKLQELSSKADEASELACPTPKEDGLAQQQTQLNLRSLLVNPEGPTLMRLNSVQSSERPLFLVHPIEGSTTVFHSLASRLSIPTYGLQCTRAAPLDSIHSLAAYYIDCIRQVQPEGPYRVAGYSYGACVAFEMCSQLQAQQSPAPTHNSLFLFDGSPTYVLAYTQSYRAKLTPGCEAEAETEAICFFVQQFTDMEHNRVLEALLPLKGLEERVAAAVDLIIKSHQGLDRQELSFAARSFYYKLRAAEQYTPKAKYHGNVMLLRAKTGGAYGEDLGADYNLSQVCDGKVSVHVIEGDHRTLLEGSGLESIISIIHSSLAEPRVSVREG

With `COc1cc(OC)c(/C=C/S(=O)(=O)Cc2ccc(OC)c(NCC(=O)O)c2)c(OC)c1` [Rigosertib], in the assay with Erk pathway, the “Erk pathway activity (ERK isoforms by NIA)” value is “decreases Erk pathway”.

Turning to `Cc1ccnc(NS(=O)(=O)c2ccc(NC(=O)Nc3ccc(S(=O)(=O)Nc4nccc(C)n4)cc3)cc2)n1` [GSK837149A], on FASN, the FASN inhibitory potency result is given as “low, nanomolar”.

On to `O=C(Nc1ccc2[nH]nc(-c3ccncc3)c2c1)[C@@H]1CCN(CC(=O)N2CCN(c3ccc(-c4ncccn4)cc3)CC2)C1` [SCH772984], for which the “Relative mRNA expression of FASN and SCD upon ERK inhibition” value in assay [1] (A549 and H1299 cells, SCH772984 at 125 ng/mL, FIG. 5A) is “suppression of FASN and SCD”.

Regarding epigallocatechin-3-gallate [EGCG], the FASN inhibitory potency result at FASN is reported as “high micromolar”.

Regarding `CC(C)c1c(C(=O)Nc2ccccc2)c(-c2ccccc2)c(-c2ccc(F)cc2)n1CC[C@@H](O)C[C@@H](O)CC(=O)O` [atorvastatin], the Tumor burden result was “tumor burden decreased” in the assay on tumor burden (patient A) and “no change in tumor burden” with tumor burden (patient B). Further, in the assay with MEK1 phospho-isoforms (day 1 vs after 8 days of treatment, FIG. 27), the “Patients with significant changes in di-phospho-MEK1” value is recorded as “four of nine”. In addition, in the assay with MEK1 phospho-isoforms (day 1 vs after eight days of treatment, FIG. 26), the “Patients with significant changes in tri-phospho-MEK1” value was “four of nine”. Also, the “Patients with significant changes in Mono-phospho-MEK1” value with MEK1 phospho-isoforms (day 1 vs after eight days of treatment, FIG. 28) was “one of nine”.

For `CC(C)=CCC/C(C)=C/CC/C(C)=C/CSc1ccccc1C(=O)O` [FTS, S-trans,trans-farnesylthiosalicylic acid], the “Decrease of ERK1/2 phosphorylation” value with ERK1/2 phosphorylation is given as 35%. The Tumor growth inhibition result with BCL2-induced lymphoma is on record as “inhibits tumor growth more effectively than inactivating either oncogene alone”. Besides, the “Total ERK1/2 level” value with ERK1/2 phospho-isoforms (FNA after 4 days of treatment) is on record as “did not change”. Also, the Phospho-ERK isoforms result in the assay with ERK1/2 phospho-isoforms (FNA on day 4 of treatment) was “all phospho-ERK isoforms decreased”. In addition, in assay [1] (human lung cancer cell line, FTS at 5-20 ng/mL, FIG. 5B), the “Gene expression of FASN and SCD upon KRAS inhibition” value is “decreased the gene expression of FASN and SCD in a dose-dependent manner”.

In the case of `C=C1C(=O)OC(CCCCCCCC)C1C(=O)O` (centres unmarked) [C75], at FASN, the FASN inhibitory potency entry is recorded as “weak, irreversible inhibitor”.

Take `C/C=C/C/C=C/CCC(=O)[C@H]1O[C@H]1C(N)=O` [Cerulenin]: the Cell proliferation result with A549 and in the assay with H1299 was “decreased proliferation” each time.
